Measured values taken from paper PMC10130320, “Extracellular enzymes secreted in the mycelial block of Lentinula edodes during hyphal growth” (AMB Express, 2023).
Structures can show the parent of a compound that is named as a salt.

Experiments:
Lcc5 = target: T1, Lcc5 (Lentinula edodes, UniProt R9WU11); assay: ABTS oxidation, absorbance at […] nm; type: biochemical; details: 1.25 mM ABTS; 50 mM sodium citrate pH 3.0; partially purified fraction P1-1
T1 construct: native, partially purified from sawdust medium (fraction P1-1), 68 kDa on SDS-PAGE
T1 sequence (R9WU11 22-515): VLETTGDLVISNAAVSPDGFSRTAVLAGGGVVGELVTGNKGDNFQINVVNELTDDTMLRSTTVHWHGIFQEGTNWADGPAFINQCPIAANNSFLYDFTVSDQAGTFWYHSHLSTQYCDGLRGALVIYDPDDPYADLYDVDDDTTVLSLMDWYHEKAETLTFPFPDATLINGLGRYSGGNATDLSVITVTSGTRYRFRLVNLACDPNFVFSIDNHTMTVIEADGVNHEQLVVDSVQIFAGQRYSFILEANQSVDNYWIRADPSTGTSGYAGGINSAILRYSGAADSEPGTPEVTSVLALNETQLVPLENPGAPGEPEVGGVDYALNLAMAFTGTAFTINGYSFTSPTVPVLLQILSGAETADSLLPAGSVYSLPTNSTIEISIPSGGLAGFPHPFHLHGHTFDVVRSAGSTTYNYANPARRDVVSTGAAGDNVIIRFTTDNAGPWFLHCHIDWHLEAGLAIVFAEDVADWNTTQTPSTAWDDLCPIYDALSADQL

Lcc13 = target: T2, Lcc13 (Lentinula edodes, UniProt A0A0P0ZBE8); assay: ABTS oxidation, absorbance at […] nm; type: biochemical; details: 1.25 mM ABTS; 50 mM sodium citrate pH 3.0; partially purified fraction P2-2
T2 construct: native, partially purified from sawdust medium (fraction P2-2), 61 kDa on SDS-PAGE
T2 sequence (A0A0P0ZBE8 20-520): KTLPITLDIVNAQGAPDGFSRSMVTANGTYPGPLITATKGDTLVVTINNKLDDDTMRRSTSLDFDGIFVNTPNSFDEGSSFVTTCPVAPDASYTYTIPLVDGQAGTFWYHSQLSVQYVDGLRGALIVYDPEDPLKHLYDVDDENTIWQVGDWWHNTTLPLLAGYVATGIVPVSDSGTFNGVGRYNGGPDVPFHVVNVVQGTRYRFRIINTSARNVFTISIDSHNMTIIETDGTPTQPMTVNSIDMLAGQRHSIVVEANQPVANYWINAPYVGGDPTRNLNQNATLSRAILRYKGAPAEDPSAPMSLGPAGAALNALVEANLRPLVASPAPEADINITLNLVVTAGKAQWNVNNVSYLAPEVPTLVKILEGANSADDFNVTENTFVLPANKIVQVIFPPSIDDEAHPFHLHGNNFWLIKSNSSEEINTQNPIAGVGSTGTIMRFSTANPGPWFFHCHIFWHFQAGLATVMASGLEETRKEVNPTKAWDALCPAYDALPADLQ

## CCn1c(=NN=c2sc3cc(S(=O)(=O)O)ccc3n2CC)sc2cc(S(=O)(=O)O)ccc21 [ABTS, 2,2-azino-bis (3-ethylbenzothiazoline-6-sulfonic acid) diammonium salt]
Lcc5
  ABTS oxidation, absorbance at 420 nm: the Lcc purification was performed based on the enzymatic activity for ABTS
Lcc13
  ABTS oxidation, absorbance at 420 nm: the Lcc purification was performed based on the enzymatic activity for ABTS
